Values quoted from earlier work in patent publication US20080107723A1, “Methods of Treating Pulmonary Distress” (priority 2006, published 2008).

Tests used:
[1] = test system: colony forming units (CFU); conditions: administered by inhalation; CF patients
[2] = administered by inhalation; CF patients

| Molecule | reduction in colony forming units (CFU) [1] | improvement in FEV1 [2] |
| --- | --- | --- |
| NC[C@H]1O[C@H](O[C@H]2[C@H](O)[C@@H](O[C@H]3O[C@H](CO)[C@@H](O)[C@H](N)[C@H]3O)[C@H](N)C[C@@H]2N)[C@H](N)C[C@@H]1O [Tobramycin] | about 2 log units | approximately 10% |
| Pulmozyme: recombinant human Dnase administered by inhalation (protein, UniProt P24855 23-282, looked up) Deoxyribonuclease-1: LKIAAFNIQTFGETKMSNATLVSYIVQILSRYDIALVQEVRDSHLTAVGKLLDNLNQDAPDTYHYVVSEPLGRNSYKERYLFVYRPDQVSAVDSYYYDDGCEPCGNDTFNREPAIVRFFSRFTEVREFAIVPLHAAPGDAVAEIDALYDVYLDVQEKWGLEDVMLMGDFNAGCSYVRPSQWSSIRLWTSPTFQWLIPDSADTTATPTHCAYDRIVVAGMLLRGAVVPDSALPFNFQAAYGLSDQLAQAISDHYPVEVMLK |  | approximately 10% |
